Data: ChEMBL document CHEMBL2074301, “Effect of endotoxin on doxorubicin transport across blood-brain barrier and P-glycoprotein function in mice” (Eur J Pharmacol, 2002)

Target: ATP-dependent translocase ABCB1 (Mus musculus, UniProt P21447)
Assay: TP_TRANSPORTER: Western in vivo, brain of ddY mouse
Assay type: functional, organism-based

ATP-dependent translocase ABCB1, sequence (P21447 whole entry): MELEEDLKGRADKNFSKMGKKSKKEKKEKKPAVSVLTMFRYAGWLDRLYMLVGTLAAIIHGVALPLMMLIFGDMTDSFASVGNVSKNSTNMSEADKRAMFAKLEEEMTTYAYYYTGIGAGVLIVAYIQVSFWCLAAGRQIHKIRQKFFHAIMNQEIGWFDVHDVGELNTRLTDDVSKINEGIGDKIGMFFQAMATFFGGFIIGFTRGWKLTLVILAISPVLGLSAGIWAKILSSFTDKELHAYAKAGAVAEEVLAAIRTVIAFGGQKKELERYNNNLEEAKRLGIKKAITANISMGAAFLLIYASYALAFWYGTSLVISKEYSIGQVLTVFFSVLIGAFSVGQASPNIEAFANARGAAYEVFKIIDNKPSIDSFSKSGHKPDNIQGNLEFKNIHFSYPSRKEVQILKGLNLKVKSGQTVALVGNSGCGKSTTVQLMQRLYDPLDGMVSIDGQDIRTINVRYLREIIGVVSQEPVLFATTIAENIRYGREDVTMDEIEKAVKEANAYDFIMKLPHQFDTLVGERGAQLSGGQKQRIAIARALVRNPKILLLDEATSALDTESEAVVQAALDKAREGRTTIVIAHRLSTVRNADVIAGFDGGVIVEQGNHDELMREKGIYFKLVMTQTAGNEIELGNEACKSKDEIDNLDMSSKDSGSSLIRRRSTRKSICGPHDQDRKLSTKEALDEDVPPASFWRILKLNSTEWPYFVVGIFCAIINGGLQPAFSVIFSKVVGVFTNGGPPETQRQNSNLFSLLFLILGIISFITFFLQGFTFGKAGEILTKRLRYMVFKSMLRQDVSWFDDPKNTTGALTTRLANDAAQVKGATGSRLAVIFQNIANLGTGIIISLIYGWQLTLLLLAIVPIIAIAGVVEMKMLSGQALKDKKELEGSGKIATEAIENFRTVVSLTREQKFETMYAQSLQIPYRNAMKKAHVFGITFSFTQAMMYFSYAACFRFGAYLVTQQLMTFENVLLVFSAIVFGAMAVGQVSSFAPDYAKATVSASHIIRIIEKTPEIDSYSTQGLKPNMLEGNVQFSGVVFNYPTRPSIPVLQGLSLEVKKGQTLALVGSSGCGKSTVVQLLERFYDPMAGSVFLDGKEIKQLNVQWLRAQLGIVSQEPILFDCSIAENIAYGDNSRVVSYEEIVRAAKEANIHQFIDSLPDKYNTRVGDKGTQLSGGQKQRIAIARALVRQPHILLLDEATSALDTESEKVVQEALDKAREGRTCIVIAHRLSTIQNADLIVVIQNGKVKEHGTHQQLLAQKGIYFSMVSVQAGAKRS

`CCCCCCCCCCCCCC(=O)OC(CCCCCCCCCCC)CC(=O)OC1C(NC(=O)CC(CCCCCCCCCCC)OC(=O)CCCCCCCCCCC)C(OC2CC(OC(=O)CC(O)CCCCCCCCCCC)C(NC(=O)CC(O)CCCCCCCCCCC)C(O)O2)OC(CO)C1OP(=O)(O)O` (stereo unspecified) was tested, and the Activity was “inducer [Decrease]”.
